Patent US20260258003A1, “SLACK-ACTIVATING COMPOUNDS AND THEIR MEDICAL USE” (Johann Wolfgang Goethe-Universität Frankfurt am Main, priority 2023, published 2026)

Test: In vivo pharmacokinetic study, plasma and brain levels by LC-MS
Design: species or system mice
Details: male, C57BL/6, mouse, in vivo, ip, 1 mg/kg
Method: The compounds pharmacokinetic properties were examined in vivo by administering the compounds intraperitoneally (i.p.) at 1 mg/kg in mice, and determining plasma and brain levels over 8 h by LC-MS measurements.
The pharmacokinetic study was performed by Pharmacelsus (Saarbrücken, Germany). In total 27 male C57BL/6 mice (8 weeks old, 23-31 g body weight, purchased from Janvier Labs, France) were used. The animals were housed in a temperature-controlled room (20-24° C.) and maintained in a 12 h light/dark cycle. Food and water were available ad libitum. All experimental procedures were approved by and conducted in accordance with the regulations of the local Animal Welfare authorities (Landesamt für Gesundheit und Verbraucherschutz, Abteilung Lebensmittel-und Veterinärwesen, Saarbrücken).
The animals were divided into 3 groups (9 mice/group) and a cassette dosing was performed, in which the mice received a single dose of 1 mg/kg body weight of 3-4 compounds (dissolved in 0.9% NaCl containing 20% cyclodextrine) i.p. simultaneously. From each animal 2 blood samples were collected from the retrobulbar venous plexus under short isoflurane anesthesia (at 0.25 h and 0.5 h from 3 mice; at 1 h and 2 h from 3 mice; and at 4 h and 8 h from 3 mice). Li-heparin was used as anticoagulant. Plasma samples were obtained by centrifugation for 10 min at 3000× g and 4° C. Immediately after the last blood sample the animal was sacrificed by cervical dislocation and the brain was removed and frozen in liquid nitrogen. Plasma and brain samples were stored at −80° C. until LC-MS analysis.
For all other compounds, the HPLC system consisted of a U-HPLC pump (Accela) and an AS Open auto sampler (Thermo Fisher Scientific, USA), and mass spectrometry was performed on a Q Exactive (Orbitrap) accurate mass spectrometer equipped with a heated electrospray (H-ESI) interface (Thermo Fisher Scientific, USA) connected to a PC running the standard software Chromeleon 7.2. For all compounds, the HPLC pump flow rate was set to 600 μl/min and the compounds were separated on an analytical column with a suitable pre-column. The pharmacokinetic analysis was performed applying a non-compartment model using the Kinetica 5.0 software (Thermo Scientific, Waltham, USA). All given parameters were obtained by trapezoid area calculation.

Row | Structure (SMILES) | % AUCextra [%] | AUC(0-inf) [ng·h/mL] | AUC(0-t) [ng·h/mL] | CL/F [mL/min/kg] | Cmax [ng/mL] | Cz [ng/mL] | Tmax [h] | Vd/F [L/kg] | half-life [h] | tz [h]
1 | CN1CCCN(C2=Nc3ccccc3Oc3ccc(C(F)(F)F)cc32)CC1 [Compound 3, 11-(4-Methyl-1,4-diazepan-1-yl)-2-(trifluoromethyl)dibenzo[b,f][1,4]oxazepine] | 5.0 | 58.3 | 55.4 | 286 | 32.3 | 1.0 | 0.5 | 50.1 | 2 | 8
2 | O=C(O)COCCN1CCCN(C2=Nc3ccccc3Oc3ccc(C(F)(F)F)cc32)CC1 [Compound 9, 2-(2-(4-(2-(Trifluoromethyl)dibenzo[b,f][1,4]oxazepin-11-yl)-1,4-diazepan-1-yl)ethoxy) acetic acid] | 0.6 | 123 | 123 | 135 | 242 | 0.3 | 0.25 | 21.1 | 1.8 | 8
3 | OCCOCCN1CCN(C2=Nc3ccccc3Sc3ccc(Cl)cc32)CC1 [Compound 7, 2-(2-(4-(2-Chlorodibenzo[b,f][1,4]thiazepin-11-yl)piperazin-1-yl)ethoxy) ethan-1-ol] | 0.9 | 71.9 | 71.2 | 232 | 87.2 | 0.3 | 0.25 | 31.4 | 1.6 | 8
4 | CN1CCN(C2=Nc3ccccc3Oc3ccc(C(F)(F)F)cc32)CC1 [Compound 2, 11-(4-Methylpiperazin-1-yl)-2-(trifluoromethyl)dibenzo[b,f][1,4]oxazepine] | 19.3 | 84 | 67.8 | 199 | 25.6 | 3.3 | 0.25 | 58.5 | 3.4 | 8
